Reference: patent US10179355B2, “Bioremediation enhancing agents and methods of use” (JRW BIOREMEDIATION, LLC, priority 2007, dated 2019)
Values joined by “and” are separate entries in the source; they are usually repeats but may differ in a detail not shown here. Identical values can stand only once.

Tested on: dechlorinating bacteria known to convert PCE to ethene
Test: Set G: Additional Yeast Metabolites and Polysaccharides as Nutrients, PCE dechlorination microcosms (kinetics, Relative Rate, paired t-test)
Format: cell-based, Dehalococcoides and Dehalobacter spp.
Excerpt: Certain contaminated materials (or sites) may contain indigenous microbial communities that are sufficient for complete bioremediation of contaminants. For such sites, there is no need to add microbes unless the indigenous microbes are genetically deficient in achieving the desired clean-up goals. For those sites that are microbiologically limited, microorganisms may be added to the contaminated materials (or sites). In one embodiment, the inoculum may be a mixed culture of halo-respiring bacteria that have been enriched to reach an optimal cell density. These mixed cultures of halo-respiring bacteria may be typically obtained from sediment samples from rivers, streams or any waterways. More specifically, the inoculum used in the Examples was originated from a Sangamon River sediment sample (Lodge Park, Piatt County, Ill.) See, e.g., Brennan, R. A., Sanford, R. A. and Werth, C. J. (2006). “Biodegradation of Tetrachloroethene by Chitin Fermentation Products in a Continuous Flow Column System.” Journal of Environ. Engr., June 665-673. This culture had grown for several years on PCE, anaerobic basal salts medium, Wolfe's vitamin solution and various electron donors including lactate (1-2 millimolar (mM)), formate (4 mM) and chitin using the Volatile Interface Transfer Apparatus (VITA) reactor system at the University of Illinois. Brennan, R. A., and Sanford, R. A. (2002). “Continuous steady-state method using Tenax for delivering tetrachloroethene to chlororespiring bacteria.” Appl. Environ. Microbiol., 68(3), 1464-1467. […] Using 16S rRNA gene-specific primers, both Dehalococcoides and Dehalobacter spp. were detected. Quantitative real-time PCR has been used to determine that approximately 1.65×10^7 Dehalococcoides gene copies were present per ml of culture.
For purpose of this disclosure, each bottle may be started with a certain amount of PCE. At subsequent times each bottle may be sampled for the degradation daughter products of PCE, namely trichloroethene (TCE), cis-dichloroethene (DCE), vinyl chloride (VC) and ethene, etc. Trans-DCE and 1,1-DCE are also daughter products of PCE, but they may not be detectable under the conditions disclosed here.
The rate of degradation may be determined by calculating the number of pmoles of chloride ions removed from PCE and subsequently from the amounts of the daughter products generated. The calculation may be performed as follows: Chloride (μmoles)=[…]−4×PCE (μmoles)−3×TCE (pmoles)−2×DCE (μmoles)−VC (μmoles)
The alternative chloride calculation is: Chloride (μmoles)=TCE (μmoles)+2×DCE (μmoles)+3×VC (μmoles)+4×Ethene (μmoles)
Next, the dechlorination rate may be determined for each bottle at each time by dividing the Chloride generated by the time (days). The data may be then normalized to the lactate control by taking the ratio of Chloride Rate (pmoles/day) and the Lactate Control Chloride Rate (pmoles/day). This ratio is called Relative Rate and is dimensionless.
As shown in the Examples, a paired t-test has been conducted to calculate the probability that the Relative Rate of one group (i.e. with Nutrient) is greater than the other group (i.e. without Nutrient). The null hypothesis is that the underlying means of the two paired groups are equal. The Probability that one group has higher Relative Rates than the other group is shown in various tables in the Examples.
The following components were used in the system for bioremediating contaminated ground water microcosms in Examples 2-8: • 160 milliliter (ml) stoppered serum bottles • 100 ml of anaerobic culture medium, groundwater containing an excess of bioavailable phosphorus and nitrogen at 0.5 mM Phosphate and 1 mM ammonium degassed with a nitrogen sparge • Nominally 1 gram of limestone • 19.54 micromoles (pmoles) Perchloroethene (PCE) • An excess of various electron donors were utilized • 3 ml of inoculum containing dechlorinating bacteria known to convert PCE to ethene. […]

Structure (SMILES): CC(O)C(=O)[O-].[Na+] (centres unmarked) [Lactate Control, sodium lactate]
- Cl^− Rate ± s.d. (0 days): 0.00 ± 0.00 µmol
- Cl^− ± s.d. (0 days): 0.00 ± 0.00 µmol
- DCE ± s.d. (0 days): 0.00 ± 0.00 µmol
- Ethene ± s.d. (0 days): 0.00 ± 0.00 µmol
- PCE ± s.d. (0 days): 20.80 ± 0.95 µmol
- TCE ± s.d. (0 days): 0.00 ± 0.00 µmol
- VC ± s.d. (0 days): 0.00 ± 0.00 µmol
- Cl^− Rate ± s.d. (21 days): 0.13 ± 0.05 µmol
- Cl^− ± s.d. (21 days): 2.83 ± 1.04 µmol
- DCE ± s.d. (21 days): 0.31 ± 0.18 µmol
- Ethene ± s.d. (21 days): 0.07 ± 0.01 µmol
- PCE ± s.d. (21 days): 18.6 ± 0.45 µmol
- TCE ± s.d. (21 days): 1.91 ± 0.71 µmol
- VC ± s.d. (21 days): 0.00 ± 0.00 µmol
- Cl^− Rate ± s.d. (35 days): 0.26 ± 0.10 µmol
- Cl^− ± s.d. (35 days): 8.95 ± 3.33 µmol
- DCE ± s.d. (35 days): 1.39 ± 0.72 µmol
- Ethene ± s.d. (35 days): 0.07 ± 0.00 µmol
- PCE ± s.d. (35 days): 10.80 ± 1.36 µmol
- TCE ± s.d. (35 days): 5.91 ± 1.90 µmol
- VC ± s.d. (35 days): 0.00 ± 0.00 µmol
- Cl^− Rate ± s.d. (50 days): 0.49 ± 0.10 µmol
- Cl^− ± s.d. (50 days): 24.59 ± 5.08 µmol
- DCE ± s.d. (50 days): 9.70 ± 2.99 µmol
- Ethene ± s.d. (50 days): 0.07 ± 0.00 µmol
- PCE ± s.d. (50 days): 3.13 ± 1.26 µmol
- TCE ± s.d. (50 days): 4.92 ± 1.03 µmol
- VC ± s.d. (50 days): 0.00 ± 0.00 µmol
- Cl^− Rate ± s.d. (79 days): 0.53 ± 0.02 µmol
- Cl^− ± s.d. (79 days): 42.00 ± 1.93 µmol
- DCE ± s.d. (79 days): 20.84 ± 0.96 µmol
- Ethene ± s.d. (79 days): 0.07 ± 0.00 µmol
- PCE ± s.d. (79 days): 0.00 ± 0.00 µmol
- TCE ± s.d. (79 days): 0.04 ± 0.07 µmol
- VC ± s.d. (79 days): 0.00 ± 0.01 µmol
- Cl^− Rate ± s.d. (138 days): 0.24 ± 0.01 µmol
- Cl^− ± s.d. (138 days): 33.42 ± 1.26 µmol
- DCE ± s.d. (138 days): 16.55 ± 0.64 µmol
- Ethene ± s.d. (138 days): 0.06 ± 0.00 µmol
- PCE ± s.d. (138 days): 0.00 ± 0.00 µmol
- TCE ± s.d. (138 days): 0.00 ± 0.00 µmol
- VC ± s.d. (138 days): 0.03 ± 0.03 µmol
- Relative Rate (bottle 1, 21 days): 0.78
- Relative Rate (bottle 1, 35 days): 0.63
- Relative Rate (bottle 1, 50 days): 0.86
- Relative Rate (bottle 1, 79 days): 1.08
- Relative Rate (bottle 1, 138 days): 0.51
- Relative Rate (bottle 2, 21 days): 1.43
- Relative Rate (bottle 2, 35 days): 1.37
- Relative Rate (bottle 2, 50 days): 1.24
- Relative Rate (bottle 2, 79 days): 1.13
- Relative Rate (bottle 2, 138 days): 0.49
- Relative Rate (bottle 3, 21 days): 0.80
- Relative Rate (bottle 3, 35 days): 1.00
- Relative Rate (bottle 3, 50 days): 0.90
- Relative Rate (bottle 3, 79 days): 1.03
- Relative Rate (bottle 3, 138 days): 0.48
- dechlorination kinetics / completeness of dechlorination (in words) (through 138 days): statistically higher dechlorination kinetics as compared to PS1 and molasses
- Relative Rate (time 21 days, bottles 1-3): 1.43 and 0.80 and 0.78
- Relative Rate (time 50 days, bottles 1-3): 1.24 and 0.90 and 0.86
- Relative Rate (time 79 days, bottles 1-3): 1.08 and 1.13 and 1.03
- Relative Rate (time 138 days, bottles 1-3): 0.51 and 0.49 and 0.48
